Test system: rabbit erythrocytes
Experiment: CAP-mediated hemolysis assay with rabbit erythrocytes
Assay type: cell-based
Details: Oryctolagus cuniculus, Erythrocyte; for inhibition at 0.00234 µM: Compound 1 0.00234 μM; for inhibition at 0.00469 µM: Compound 1 0.00469 μM; for inhibition at 0.00938 µM: Compound 1 0.00938 μM; for inhibition at 0.0188 µM: Compound 1 0.0188 μM; for inhibition at 0.0375 µM: Compound 1 0.0375 μM; for inhibition at 0.075 µM: Compound 1 0.075 μM; for inhibition at 0.15 µM: Compound 1 0.15 μM; for inhibition at 0.75 µM: Compound 1 0.75 μM
Experimental: Inhibition was analyzed by the method of Prichard and Shipman (Prichard, M. N. and C. Shipman, Jr. A Three-Dimensional Model to Analyze Drug-Drug Interactions. Antiviral Research 1990, 14:181-205) Three-dimensional surface graphs of each experiment were generated and analyzed using an Excel spreadsheet program adapted from the MacSynergy II spreadsheet (University of Alabama, Birmingham, AL). The X-axis and Y-axis of each surface graph represent the concentrations of the two test compounds, and the Z-axis represents the difference between measured inhibition and a theoretically determined additive inhibition. For an additive relationship, the surface graph resembles a horizontal plane at Z=0, whereas positive surface peaks indicate greater inhibition than expected and therefore synergy, and negative surface peaks indicate less inhibition than expected and therefore antagonism.
Synergy and antagonism volumes were calculated separately as the summed volumes of peaks respectively above and below the Z=0 plane. Volumes were determined using 95% confidence limits to assure significance.
Inhibition was analyzed by the method of Chou and Talalay (Chou, T.-C. and P. Talalay. Analysis of Combined Drug Effects: A New Look at a Very Old Problem. Trends Pharmacol. Sci. 1983, 4:450-454; Chou, T. C. Theoretical basis, experimental design, and computerized simulation of synergism and antagonism in drug combination studies. Pharmacological Reviews 2006, 58:621-681). Analysis using the median-effect equation of Chou and Talalay was performed with CompuSyn software (ComboSyn, Inc, Paramus, NJ). […] Three constant ratios were analyzed in each experiment, centered approximately at the ratio of the individual IC50 values for the two compounds and ranging two-fold higher and lower. […] Combination index (CI) values were determined at inhibition values of 50%, 75%, and 90%. Interactions were considered additive for CI values between 0.9 and 1.1. […] Interactions were considered slightly antagonistic for CI values between 1.1 and 1.2, moderately antagonistic for CI values between 1.2 and 1.45; antagonistic for CI values between 1.45 and 3.3, and strongly antagonistic for CI values between 3.3 and 10.
Compstatin was obtained from Tocris Bioscience (Bristol, UK). The murine monoclonal antibody to human C5, isotype IgGIK, was obtained as product number A217 from Quidel (San Diego, CA). FUT-175 (nafamostat) was obtained from Calbiochem EMD Millipore (Billerica, MA).
Anti-C5 (murine monoclonal antibody to human C5, isotype IgGIK, product No. A217 from Quidel, San Diego, CA) was obtained as a 1.1 mg/mL stock in buffered saline. Gelatin veronal buffer (GVB) without Ca^++ and Mg (GVB^0), 100 mM MgCl2+100 mM EGTA (MgEGTA), normal human serum (NHS), and 5×10^8/mL rabbit erythrocytes (Er) were obtained from Complement Technology Inc. (Tyler, TX).
GVB^0·MgEGTA was prepared by mixing GVB^0 and 100 mM MgEGTA in a 9:1 ratio. Er cells were used within two weeks of purchase; before each assay cells were collected by centrifugation at 800×g and 4° C. for 3 minutes and the buffer was replaced with equal volume fresh cold GVB^0·MgEGTA.
Each of the 64 possible combinations of compounds at varying concentrations was tested in duplicate or triplicate wells. […] 50 μL GVB^0·MgEGTA was added to each well, followed by 50 μL 20% NHS in GVB^0·MgEGTA. The plates were sealed, mixed on a microtiter plate shaker, and incubated at 37° C. for 15 minutes. 20 μL Er was then added to each well and the plates were sealed, mixed, and incubated at 37° C. for 30 minutes with an added shaking at 15 minutes. The following controls were each included in quadruplicate: 2.4 μL DMSO+120 μL GVB^0·MgEGTA (representing background signal); 2.4 μL DMSO+100 μL GVB^0·MgEGTA+20 μL Er (no serum, representing 0% CAP-mediated lysis); 2.4 μL DMSO+50 μL GVB^0·MgEGTA+50 μL 20% NHS+20 μL Er (no compound, representing 100% CAP-mediated lysis); and 2.4 μL DMSO+100 μL H2O+20 μL Er (osmotic lysis, representing maximal lysis). […]

[1] = Experiment 2, Compstatin 0-30 μM
[2] = Experiment 3, Compstatin 0-30 μM
[3] = Experiment 4, Compstatin 0-30 μM

SMILES: CC(=O)c1nn(CC(=O)N2C[C@H](F)C[C@H]2C(=O)Nc2cccc(Br)n2)c2ccc(-c3cnc(C)nc3)cc12 [Compound 1, (2S,4R)-1-(2-(3-acetyl-5-(2-methylpyrimidin-5-yl)-1H-indazol-1-yl)acetyl)-N-(6-bromopyridin-2-yl)-4-fluoropyrrolidine-2-carboxamide]
- inhibition at 0.00234 µM [1]: 0%
- inhibition at 0.00234 µM (Experiment 2, FUT-175 0-40 μM): 5%
- inhibition at 0.00469 µM [1]: 0%
- inhibition at 0.00469 µM (Experiment 2, FUT-175 0-40 μM): 7%
- inhibition at 0.00938 µM [1]: 3.2%
- inhibition at 0.00938 µM (Experiment 2, FUT-175 0-40 μM): 13%
- inhibition at 0.0188 µM [1]: 16%
- inhibition at 0.0188 µM (Experiment 2, FUT-175 0-40 μM): 31%
- inhibition at 0.0375 µM [1]: 45%
- inhibition at 0.0375 µM (Experiment 2, FUT-175 0-40 μM): 70%
- inhibition at 0.075 µM [1]: 72%
- inhibition at 0.15 µM [1]: 91%
- inhibition at 0.15 µM (Experiment 2, FUT-175 0-40 μM): 98%
- inhibition at 0.75 µM (Experiment 2, FUT-175 0-40 μM): 95%
- inhibition at 0.00234 µM [2]: 3%
- inhibition at 0.00234 µM (Experiment 3, FUT-175 0-40 μM): 11%
- inhibition at 0.00469 µM [2]: 7.7%
- inhibition at 0.00469 µM (Experiment 3, FUT-175 0-40 μM): 17%
- inhibition at 0.00938 µM [2]: 22%
- inhibition at 0.00938 µM (Experiment 3, FUT-175 0-40 μM): 32%
- inhibition at 0.0188 µM [2]: 41%
- inhibition at 0.0188 µM (Experiment 3, FUT-175 0-40 μM): 54%
- inhibition at 0.037 µM (Experiment 3, Compound 1 0.037 μM, FUT-175 0-40 μM): 94%
- inhibition at 0.0375 µM [2]: 73%
- inhibition at 0.075 µM [2]: 96%
- inhibition at 0.15 µM [2]: 98%
- inhibition at 0.15 µM (Experiment 3, FUT-175 0-40 μM): 98%
- inhibition at 0.75 µM (Experiment 3, FUT-175 0-40 μM): 98%
- inhibition at 0.00234 µM [3]: 0.8%
- inhibition at 0.00469 µM [3]: 7.1%
- inhibition at 0.00938 µM [3]: 20%
- inhibition at 0.0188 µM [3]: 41%
- inhibition at 0.0375 µM [3]: 81%
- inhibition at 0.075 µM [3]: 97%
- inhibition at 0.15 µM [3]: 99%
- inhibition at 0.00234 µM (Experiment #1, FUT-175 0-40 μM): 4.5%
- inhibition at 0.00469 µM (Experiment #1, FUT-175 0-40 μM): 8.3%
- inhibition at 0.0093 µM (Experiment #1, Compound 1 0.0093 μM, FUT-175 0-40 μM): 16%
- inhibition at 0.0188 µM (Experiment #1, FUT-175 0-40 μM): 31%
- inhibition at 0.0234 µM (Experiment #1, Compound 1 0.0234 μM, Compstatin 0-30 μM): 27%
- inhibition at 0.0375 µM (Experiment #1, FUT-175 0-40 μM): 44%
- inhibition at 0.0469 µM (Experiment #1, Compound 1 0.0469 μM, Compstatin 0-30 μM): 44%
- inhibition at 0.0938 µM (Experiment #1, Compound 1 0.0938 μM, Compstatin 0-30 μM): 75%
- inhibition at 0.15 µM (Experiment #1, FUT-175 0-40 μM): 96%
- inhibition at 0.188 µM (Experiment #1, Compound 1 0.188 μM, Compstatin 0-30 μM): 91%
- inhibition at 0.375 µM (Experiment #1, Compound 1 0.375 μM, Compstatin 0-30 μM): 98%
- inhibition at 0.75 µM (Experiment #1, Compstatin 0-30 μM): 98%
- inhibition at 0.75 µM (Experiment #1, FUT-175 0-40 μM): 79%
- inhibition at 1.5 µM (Experiment #1, Compound 1 1.5 μM, Compstatin 0-30 μM): 98%
